For series [1], the target named is T1, full-length beta-Catenin (Uniprot ID P35222) (Homo sapiens, UniProt P35222).
T1 construct: 10 nM full-length beta-Catenin (Uniprot ID P35222)
T1 sequence (P35222 1-781): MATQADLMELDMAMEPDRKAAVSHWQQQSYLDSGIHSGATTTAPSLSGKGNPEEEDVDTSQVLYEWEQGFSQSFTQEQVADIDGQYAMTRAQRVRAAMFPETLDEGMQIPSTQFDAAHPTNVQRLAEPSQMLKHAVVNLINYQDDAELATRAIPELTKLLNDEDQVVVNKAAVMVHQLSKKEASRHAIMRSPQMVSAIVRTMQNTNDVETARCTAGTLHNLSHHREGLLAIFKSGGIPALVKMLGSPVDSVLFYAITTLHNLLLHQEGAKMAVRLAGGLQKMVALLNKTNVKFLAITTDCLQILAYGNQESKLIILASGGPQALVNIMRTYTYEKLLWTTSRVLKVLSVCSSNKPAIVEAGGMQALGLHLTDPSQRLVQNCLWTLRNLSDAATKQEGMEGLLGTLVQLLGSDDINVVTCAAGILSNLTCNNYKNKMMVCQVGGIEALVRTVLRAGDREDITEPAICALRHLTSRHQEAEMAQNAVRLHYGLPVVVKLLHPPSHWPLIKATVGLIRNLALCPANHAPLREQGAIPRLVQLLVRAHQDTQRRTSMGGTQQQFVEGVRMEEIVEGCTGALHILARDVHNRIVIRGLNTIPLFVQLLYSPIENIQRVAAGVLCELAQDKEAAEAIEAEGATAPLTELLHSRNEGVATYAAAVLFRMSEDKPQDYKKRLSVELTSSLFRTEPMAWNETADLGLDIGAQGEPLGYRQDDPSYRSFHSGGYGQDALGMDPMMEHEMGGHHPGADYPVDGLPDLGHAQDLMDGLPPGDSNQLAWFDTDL
The experiment in a line: Fluorescence polarization IC50 (beta-catenin / 5FAM-TCF4 10-53 competition). It counts as binding. The conditions noted are these: fluorescence polarization; read-out: beta-Catenin FP IC50.

For series [2], the target named is T2, beta-catenin/TCF4 engagement (Homo sapiens, UniProt P35222).
T2 construct: expressed in transfected cells; host or cells: HEK293
T2 sequence (P35222 1-781): T1 sequence (P35222 1-781)
Put plainly: Nano-BRET target engagement assay (B-cat-Halo & TCF4-Luc in HEK293 cells). The class given is cell-based. The settings on record: absolute IC50; read-out: NanoBRET Abs IC50.

Another series in a line: Solubility in PBS. It counts as physicochemical. Summed up:
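PBS sample ultracentrifuged; supernatant run on HPLC vs. 50 μM peptide in DMSO standard. Solubility = (PBS peak area / DMSO peak area) × 50 uM.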

Converted amounts (≈) assume the structure as drawn. Like-named read-outs stand apart in the source and are kept apart here.

`CC(=O)N1CCC[C@]12CC=CCCCC1(CCCC=CCCCOC(=O)N3CC[C@@](C(=O)N[C@@H](Cc4c(F)c(F)c(F)c(F)c4F)C(=O)N[C@@H](Cc4csc5ccccc45)C(=O)N[C@@H](CCC(N)=O)C(N)=O)(C3)NC(=O)[C@H](CC(C)C)NC(=O)[C@H](Cc3ccccc3)NC(=O)[C@H](C)NC(=O)[C@H](C)NC(=O)[C@H](CC(=O)O)NC(=O)[C@H](CC(=O)O)NC1=O)NC(=O)[C@H](CC(C)(C)C)NC(=O)[C@H](CC(=O)O)NC2=O` (stereo partly drawn) [I-1185, Ac-PL3-Asp-Npg-B5-Asp-Asp-Ala-Ala-Phe-Leu-PyrS2-Pff-BztA-Gln-NH2]: the IC50 is 203 nM in series [1] and 26900 nM in series [2]. The compound also gave a Solubility in “Solubility in PBS” (Solubility (uM)) of 33 µM (≈ 66 µg/mL).
In the same order, the values of `CC(=O)N1CCC[C@]12CC=CCCCC1(CCCC=CCCCOC(=O)N3CC[C@@](C(=O)N[C@@H](Cc4c(F)c(F)c(F)c(F)c4F)C(=O)N[C@@H](Cc4csc5ccccc45)C(=O)N[C@@H](CCC(N)=O)C(N)=O)(C3)NC(=O)[C@H](CC(N)=O)NC(=O)[C@H](Cc3ccccc3)NC(=O)[C@H](C)NC(=O)[C@H](C)NC(=O)[C@H](CC(=O)O)NC(=O)[C@H](CC(=O)O)NC1=O)NC(=O)[C@H](CC(C)(C)C)NC(=O)[C@H](CC(=O)O)NC2=O` (stereo partly drawn) [I-1186, Ac-PL3-Asp-Npg-B5-Asp-Asp-Ala-Ala-Phe-Asn-PyrS2-Pff-BztA-Gln-NH2] are 128 nM, 23600 nM and 46 µM (≈ 92.1 µg/mL).
For the compound `CC(=O)N1CCC[C@]12CC=CCCCC1(CCCC=CCCCOC(=O)N3CC[C@@](C(=O)N[C@@H](Cc4c(F)c(F)c(F)c(F)c4F)C(=O)N[C@@H](Cc4csc5ccccc45)C(=O)N[C@@H](CO)C(N)=O)(C3)NC(=O)[C@H]([C@@H](C)O)NC(=O)[C@H](Cc3ccccc3)NC(=O)[C@H](C)NC(=O)[C@H](C)NC(=O)[C@H](CC(=O)O)NC(=O)[C@H](CC(=O)O)NC1=O)NC(=O)[C@H](CC1CCCCC1)NC(=O)[C@H](CC(=O)O)NC2=O` (stereo partly drawn) [I-1187, Ac-PL3-Asp-Cha-B5-Asp-Asp-Ala-Ala-Phe-Thr-PyrS2-Pff-BztA-Ser-NH2], the results for the IC50 in series [1] and in series [2] were 80.5 nM and 28600 nM, respectively. The compound further displayed a Solubility in “Solubility in PBS” (Solubility (uM)) of 42 µM (≈ 82.9 µg/mL).
In the same order, the values of `CC(=O)N1CCC[C@]12CC=CCCCC1(CCCC=CCCCCCC[C@@](C)(C(=O)N[C@@H](Cc3ccsc3)C(=O)N[C@@H](Cc3csc4ccccc34)C(=O)N[C@@H](CCC(N)=O)C(N)=O)NC(=O)[C@H](CC(C)C)NC(=O)[C@H](Cc3ccccc3)NC(=O)[C@H](C)NC(=O)[C@H](C)NC(=O)[C@H](CC(=O)O)NC(=O)[C@H](CC(=O)O)NC1=O)NC(=O)[C@H](CC(C)(C)C)NC(=O)[C@H](CC(=O)O)NC2=O` (stereo partly drawn) [I-1188, Ac-PL3-Asp-Npg-B5-Asp-Asp-Ala-Ala-Phe-Leu-S8-3Thi-BztA-Gln-NH2] are 22.5 nM, 7200 nM and 18 µM (≈ 33.7 µg/mL).
In the case of `CC(=O)N1CCC[C@]12CC=CCCCC1(CCCC=CCCCCCC[C@@](C)(C(=O)N[C@@H](Cc3ccsc3)C(=O)N[C@@H](Cc3csc4ccccc34)C(=O)N[C@@H](Cc3c[nH]cn3)C(N)=O)NC(=O)[C@H](CC(C)C)NC(=O)[C@H](Cc3ccccc3)NC(=O)[C@H](C)NC(=O)[C@H](C)NC(=O)[C@H](CC(=O)O)NC(=O)[C@H](CC(=O)O)NC1=O)NC(=O)[C@H](CC(C)(C)C)NC(=O)[C@H](CC(=O)O)NC2=O` (stereo partly drawn) [I-1195, Ac-PL3-Asp-Npg-B5-Asp-Asp-Ala-Ala-Phe-Leu-S8-3Thi-BztA-His-NH2], the IC50 in series [1] is 29.5 nM; in series [2], 16200 nM. For the same compound, in the series “Solubility in PBS”, the “Solubility” value was found to be 10 µM (≈ 18.8 µg/mL).
`CC(=O)N1CCC[C@]12CC=CCCCC1(CCCC=CCCCOC(=O)N3CC[C@@](C(=O)N[C@@H](Cc4ccsc4)C(=O)N[C@@H](Cc4csc5ccccc45)C(=O)N[C@@H](CCC(N)=O)C(N)=O)(C3)NC(=O)[C@H](CC(C)C)NC(=O)[C@H](Cc3ccccc3C#N)NC(=O)[C@H](C)NC(=O)[C@H](C)NC(=O)[C@H](CC(=O)O)NC(=O)[C@H](CC(=O)O)NC1=O)NC(=O)[C@H](CC(C)(C)C)NC(=O)[C@H](CC(=O)O)NC2=O` (stereo partly drawn) [I-1200, Ac-PL3-Asp-Npg-B5-Asp-Asp-Ala-Ala-2CNF-Leu-PyrS2-3Thi-BztA-Gln-NH2]: the figures for the IC50 in series [1] and in series [2] were 99 nM and more than 20000 nM, respectively. In the series “Solubility in PBS” (Solubility (uM)), this compound came in with a Solubility of 48 µM (≈ 93.2 µg/mL).
The matching figures for `CC(=O)N1CCC[C@]12CC=CCCCC1(CCCC=CCCCOC(=O)N3CC[C@@](C(=O)N[C@@H](Cc4ccsc4)C(=O)N[C@@H](Cc4csc5ccccc45)C(=O)N[C@@H](CCC(N)=O)C(N)=O)(C3)NC(=O)[C@H](CC(C)C)NC(=O)[C@H](Cc3cccc(C#N)c3)NC(=O)[C@H](C)NC(=O)[C@H](C)NC(=O)[C@H](CC(=O)O)NC(=O)[C@H](CC(=O)O)NC1=O)NC(=O)[C@H](CC(C)(C)C)NC(=O)[C@H](CC(=O)O)NC2=O` (stereo partly drawn) [I-1201, Ac-PL3-Asp-Npg-B5-Asp-Asp-Ala-Ala-3CNF-Leu-PyrS2-3Thi-BztA-Gln-NH2]: 13 nM, 19600 nM and 47 µM (≈ 91.3 µg/mL).
`CC(=O)N1CCC[C@]12CC=CCCCC1(CCCC=CCCCOC(=O)N3CC[C@@](C(=O)N[C@@H](Cc4ccsc4)C(=O)N[C@@H](Cc4csc5ccccc45)C(=O)N[C@@H](CCC(N)=O)C(N)=O)(C3)NC(=O)[C@H](CC(C)C)NC(=O)[C@H](Cc3ccc(C#N)cc3)NC(=O)[C@H](C)NC(=O)[C@H](C)NC(=O)[C@H](CC(=O)O)NC(=O)[C@H](CC(=O)O)NC1=O)NC(=O)[C@H](CC(C)(C)C)NC(=O)[C@H](CC(=O)O)NC2=O` (stereo partly drawn) [I-1202, Ac-PL3-Asp-Npg-B5-Asp-Asp-Ala-Ala-4CNF-Leu-PyrS2-3Thi-BztA-Gln-NH2]: the 50% inhibitory concentration (IC50) was determined as 16 nM in series [1] and 16300 nM in series [2]. In addition, the “Solubility” value in the series “Solubility in PBS” turned out to be 50 µM (≈ 97.1 µg/mL).
For `CC(=O)N1CCC[C@]12CC=CCCCC1(CCCC=CCCCOC(=O)N3CC[C@@](C(=O)N[C@@H](Cc4ccccc4C#N)C(=O)N[C@@H](Cc4csc5ccccc45)C(=O)N[C@@H](CCC(N)=O)C(N)=O)(C3)NC(=O)[C@H](CC(C)C)NC(=O)[C@H](Cc3ccccc3)NC(=O)[C@H](C)NC(=O)[C@H](C)NC(=O)[C@H](CC(=O)O)NC(=O)[C@H](CC(=O)O)NC1=O)NC(=O)[C@H](CC(C)(C)C)NC(=O)[C@H](CC(=O)O)NC2=O` (stereo partly drawn) [I-1203, Ac-PL3-Asp-Npg-B5-Asp-Asp-Ala-Ala-Phe-Leu-PyrS2-2CNF-BztA-Gln-NH2], the 50% inhibitory concentration (IC50) in series [1] worked out at 16 nM; in series [2] it was 10000 nM. The “Solubility” value in the series “Solubility in PBS” stood at 50 µM (≈ 96.8 µg/mL).
In the same order, the values of `CC(=O)N1CCC[C@]12CC=CCCCC1(CCCC=CCCCOC(=O)N3CC[C@@](C(=O)N[C@@H](Cc4ccsc4)C(=O)N[C@@H](Cc4csc5ccccc45)C(=O)N[C@@H](CCC(N)=O)C(N)=O)(C3)NC(=O)[C@H](CC(N)=O)NC(=O)[C@H](Cc3ccccc3)NC(=O)[C@H](C)NC(=O)[C@H](C)NC(=O)[C@H](CC(=O)O)NC(=O)[C@H](CC(N)=O)NC1=O)NC(=O)[C@H](CC(C)(C)C)NC(=O)[C@H](CC(=O)O)NC2=O` (stereo partly drawn) [I-1206, Ac-PL3-Asp-Npg-B5-Asn-Asp-Ala-Ala-Phe-Asn-PyrS2-3Thi-BztA-Gln-NH2] are 32 nM, 27800 nM and 50 µM (≈ 95.9 µg/mL).
For the compound `CC(=O)N1CCC[C@]12CC=CCCCC1(CCCC=CCCCOC(=O)N3CC[C@@](C(=O)N[C@@H](Cc4ccsc4)C(=O)N[C@@H](Cc4csc5ccccc45)C(=O)N[C@@H](CCC(N)=O)C(N)=O)(C3)NC(=O)[C@H](CC(C)C)NC(=O)[C@H](Cc3ccccc3)NC(=O)[C@H](C)NC(=O)[C@H](C)NC(=O)[C@H](CC(=O)O)NC(=O)[C@H](CC(N)=O)NC1=O)NC(=O)[C@H](CC(C)(C)C)NC(=O)[C@H](CC(=O)O)NC2=O` (stereo partly drawn) [I-1207, Ac-PL3-Asp-Npg-B5-Asn-Asp-Ala-Ala-Phe-Leu-PyrS2-3Thi-BztA-Gln-NH2], the results for the IC50 in series [1] and in series [2] were 40 nM and 7500 nM, respectively. Further, in the series “Solubility in PBS” (Solubility (uM)), the Solubility amounted to 11 µM (≈ 21.1 µg/mL).
The matching figures for `COCCOCCC(=O)N1CCC[C@]12CC=CCCCC1(CCCC=CCCCOC(=O)N3CC[C@@](C(=O)N[C@@H](Cc4ccccc4Cl)C(=O)N[C@@H](Cc4csc5ccccc45)C(=O)N[C@@H](C(N)=O)[C@H](C)O)(C3)NC(=O)[C@H](CC(N)=O)NC(=O)[C@H](Cc3ccccc3)NC(=O)[C@H](C)NC(=O)[C@H](C)NC(=O)[C@H](CC(=O)O)NC(=O)[C@H](CC(=O)O)NC1=O)NC(=O)[C@H](CC(C)(C)C)NC(=O)[C@H](CC(=O)O)NC2=O` (stereo partly drawn) [I-1253, mPEG2-PL3-Asp-Npg-B5-Asp-Asp-Ala-Ala-Phe-Asn-PyrS2-2C1F-BztA-dThr-NH2]: 14 nM, more than 20000 nM and 42 µM (≈ 84.3 µg/mL).

For the origin of these results see patent US20240116985A1, “STAPLED PEPTIDES AND METHODS THEREOF” (priority 2020, published 2024).
